Measured values reported in patent publication US8551448B2, “Rotanone analogs: method of preparation and use” (The Regents of the University of California, priority 2006, dated 2013).
Read-outs that look alike come from different tables or passages of the source.

What was measured:
[1] = Biodistribution of iodorotenol and iodorotenone compounds in rats (organs and blood weighed and counted); details: for uptake in the heart relative to the Z isomer: twenty microcuries into tail vein
Experimental: Evaluation of the iodorotenol and iodorotenone compounds. […] Twenty microcuries of the compound was injected into the rat tail vein. At various time points post injection (30 m, 1 h, 2 h, and 4 h) rats were euthanized and the organs and blood were weighed and counted.

[2] = Dual head planar whole body imaging in canines; details: dogs; for heart uptake and retention (planar images): 4-6 mCi 123I compound iv in front leg vein, scans to 7 h (FIG. 17); for uptake in the thyroid: no thyroid blocking agent prior to the scan
Experimental: Two 20-25 kg dogs were anesthetized with iv sodium pentathol and maintained on inhaled isoflurane. Four to six mCi of Z-[^123I]Iodorotenone or E-[^123I]Iodorotenone was injected in a front leg vein. Dual head planar imaging was carried out using the GE Millenium SPECT scanner with Hawkeye xray CT. The scanning protocol was serial 4 m whole body scans over the first hour, 8 m whole body scans from 1-2 h and 30 min whole body scans out to 7 h post injection of the tracer. […] No thyroid blocking agent was introduced prior to the scan.

[3] = test system: isolated blood perfused rabbit heart; details: cited from earlier work

Row | SMILES | uptake in the heart relative to the Z isomer [1] | heart uptake and retention (planar images) [2] | uptake in the thyroid [2] | also measured
1 | COc1cc2c(cc1OC)C1C(CO2)Oc2c(ccc3c2CC(C(C)=CI)O3)C1O (stereo not drawn) [E-iodorotenol, E-7′-iodorotenol] | two-fold increase | – | – | –
2 | COc1cc2c(cc1OC)[C@@H]1C(=O)c3ccc4c(c3O[C@@H]1CO2)C[C@H](/C(C)=C/I)O4 [E-iodorotenone, E-7′-iodorotenone] | nearly double | greater heart uptake and retention | minimal | heart uptake, injected dose in the heart tissue ([1]; tail vein injection, at 1 hour): 6.5 % injected dose; time to which the heart is clearly visible ([2]; planar imaging post injection): 4.5 h
3 | [C-]#[N+]CC(C)(C)OC.[C-]#[N+]CC(C)(C)OC.[C-]#[N+]CC(C)(C)OC.[C-]#[N+]CC(C)(C)OC.[C-]#[N+]CC(C)(C)OC.[C-]#[N+]CC(C)(C)OC.[Tc] [Tc-99m sestamibi] | – | – | – | net heart retention ([3]; at 1 min): 0.41±0.11; net heart retention ([3]; at 26 min): 0.27±0.11; extraction [3]: 0.48±0.10
4 | COc1cc2c(cc1OC)[C@@H]1C(=O)c3ccc4c(c3O[C@@H]1CO2)C[C@H](/C(C)=C\I)O4 [Z-iodorotenone, Z-7′-iodorotenone] | – | washed out of the heart faster | minimal | clearance through the gallbladder and stomach ([2]; planar imaging, compared with the E isomer): more rapidly
